Reference: PMC11206778, “Preclinical Pharmacokinetic Study and Lung Penetration of a Coumarin Extracted from Zanthoxylum tingoassuiba” (Pharmaceutics, 2024)
Like-named read-outs stand apart in the source and are kept apart here.

Columns and labels:
[1] = Plasma pharmacokinetics study in mice (non-compartmental analysis, HPLC-DAD); type: in vivo, Balb/c mice; conditions: mean ± SD; for k el: read-out: ke (converted)
Experimental: The pharmacokinetic analysis was carried out with Balb/c mice (~30 g) obtained from the Animal Facilities at Oswaldo Cruz Foundation (Fiocruz, Bahia, Brazil) and kept in a room with environmental control (22 ± 2 °C and 12:12 h light–dark cycle), and with free access to water and food until the day of the experiment. Animal care and handling procedures were in strict accordance with the recommendations in the Guide for the Care and Use of Laboratory Animals of the National Institute of Health and the Brazilian College of Animal Experimentation. The protocol was approved by the Institutional Animal Care and Use Committee of FIOCRUZ (CEUA/FIOCRUZ, permit number: L-IGM-013/2021).
The compound was administered to the mice (n = 3 per time point) by inhalation and intravenous routes at 50 and 15 mg/kg, respectively. The intravenous administration was conducted through the lateral tail vein, and the inhalation dosing was conducted using inhalation exposure chambers. The nebulizer device was operated according to the manufacturer’s specifications. The blood samples were collected 0.083, 0.25, 0.5, 0.75, 1, 2, and 4 h after both administrations. The blood samples were centrifuged for plasma separation (6000 rpm, 10 min, 8 °C) and stored at −18 °C until analysis.
The non-compartmental pharmacokinetic parameters of both studies were estimated using PKanalix® Suite 2020R1 software (Lixoft®, Antony, France). The determined PK parameters included the elimination rate constant (ke), the elimination half-life (t1/2), the area under the concentration–time curve (AUC) calculated by the linear trapezoidal rule, the mean residence time (MRT), the total clearance (CL), and the volume of distribution (Vd).

[2] = Lung distribution in mice (AUC lung/AUC plasma ratio); type: in vivo; conditions: male, Balb/c, mouse, read-out: Lung penetration factor (AUC inf lung/AUC inf plasma)
Experimental: The lung distribution experiment used Male Balb/c (~30 g). After intravenous bolus and inhalation administration of 15 mg/kg and 50 mg/kg, respectively, of 6-methoxyseselin, three animals were sacrificed at 0.5 h, 1 h, 2 h, and 4 h, each. The lung samples were removed, gently blotted dry, weighed, and frozen at −80 °C until processing. On the day of the analysis, tissue samples were allowed to thaw and were weighed, and 2 mL of methanol was added per gram of tissue. The tissues were homogenized for approximately 5 min, and the homogenates were then transferred to Eppendorf® tubes and centrifuged at 3500× g for 15 min at 4 °C. A volume of supernatant was then processed similarly to the plasma samples and analyzed by HPLC-DAD. The lung penetration was calculated using the AUC lung/AUC plasma ratio. The trapezoidal method was used to estimate both AUCs.

[3] = Long-term stability in mice plasma stored at −18 °C; type: in vitro ADME
Experimental: Stability assays were performed in triplicate with the QC samples (LQC and HQC) by adding 6-methoxyseselin to mice plasma. The stability after 30, 45, and 60 days was performed with samples stored at −18 °C. 6-methoxyseselin was considered stable in plasma for the period evaluated when the accuracy was within acceptable limits (RSE within ±15%).

[4] = test system: arteries isolated from rats; set-up: method as in PMID 31711783, PMID 37149230; conditions: cited from earlier work
[5] = cited from earlier work
[6] = Balb/c, mouse, inhaled or intranasal, inhalation 50 mg/kg
[7] = Balb/c, mouse, intravenous 15 mg/kg

COc1cc2ccc(=O)oc2c2c1OC(C)(C)C=C2 [6-methoxyseselin]
MRT [1, 6]: 5.4 ± 2.1 h
half-life [1, 6]: 3.3 ± 0.86 h
k el [1, 6]: 5.83e-05 s⁻¹
MRT [1, 7]: 3.23 ± 1.57 h
clearance [1, 7]: 88.7 mL/min/kg
half-life [1, 7]: 2.6 ± 0.73 h
Vd ([1]; Balb/c, mouse, intravenous 15 mg/kg, read-out: Vd): 19.6 ± 1.57 L/kg
k el [1, 7]: 7.5e-05 s⁻¹
Cl ([1]; inhalation 50 mg/kg): 110 ± 39 mL/min/kg
Vd ([1]; inhalation 50 mg/kg): 18.79 ± 2.58 L/kg
Kp ([2]; inhaled, inhalation 50 mg/kg): 2.14
Kp ([2]; intravenous 15 mg/kg): 1.45
Stability in storage (verdict) ([3]; 60 days): unstable
Stability in storage (verdict) ([3]; until day 30): stable
Vasorelaxation [4]: potent vasorelaxation

CCCC1O[C@@H]2C[C@H]3[C@@H]4CCC5=CC(=O)C=C[C@]5(C)[C@H]4[C@@H](O)C[C@]3(C)[C@]2(C(=O)CO)O1 (stereo partly drawn) [budesonide]
half-life [5]: 2 to 3.6 h
Vd ([5]; reference not given, ref 22 follows in the same paragraph): 2.2 to 3.9 L/kg

CC(C)(C)NCC(O)c1ccc(O)c(CO)c1 (stereo not drawn) [salbutamol]
Vd [5]: 3 to 4 L/kg
